# Data published in ChEMBL document CHEMBL4831513, “Discovery of quinazoline derivatives as a novel class of potent and in vivo efficacious LSD1 inhibitors by drug repurposing” (Eur J Med Chem, 2021).
# Biological target: Lysine-specific histone demethylase 1A (Homo sapiens, UniProt O60341)
# Description: Inhibition of recombinant full length LSD1 (unknown origin) transfected in Escherichia coli BL21 (DE) using H3K4me2 as substrate by flourescence based analysis
row,SMILES,IC50
1,COCCOc1cc2ncnc(Nc3ccc(F)cc3)c2cc1OCCOC,> 50 µM
2,COCCOc1cc2ncnc(Nc3ccc4c(c3)OCO4)c2cc1OCCOC,> 50 µM
3,COCCOc1cc2ncnc(Nc3ccccc3)c2cc1OCCOC,> 50 µM

# Further lines, results first:
row,IC50,SMILES
1,> 50 µM,COCCOc1cc2ncnc(Nc3ccc(Br)cc3)c2cc1OCCOC
2,> 50 µM,C#Cc1cccc(Nc2nc(-c3ccccc3)nc3ccccc23)c1
